Literature values in patent publication US20070135454A1, “Bicyclic pyrimidin-4(3h)-ones and analogues and derivatives thereof which modulate the function of the vanilloid-1-receptor(vr1)” (priority 2003, published 2007).

Target: VR1 (Rattus norvegicus, UniProt O35433)
Settings: Wahl et al., Mol. Pharmacol, 59:9, 2001

Chain of VR1 (O35433 whole entry): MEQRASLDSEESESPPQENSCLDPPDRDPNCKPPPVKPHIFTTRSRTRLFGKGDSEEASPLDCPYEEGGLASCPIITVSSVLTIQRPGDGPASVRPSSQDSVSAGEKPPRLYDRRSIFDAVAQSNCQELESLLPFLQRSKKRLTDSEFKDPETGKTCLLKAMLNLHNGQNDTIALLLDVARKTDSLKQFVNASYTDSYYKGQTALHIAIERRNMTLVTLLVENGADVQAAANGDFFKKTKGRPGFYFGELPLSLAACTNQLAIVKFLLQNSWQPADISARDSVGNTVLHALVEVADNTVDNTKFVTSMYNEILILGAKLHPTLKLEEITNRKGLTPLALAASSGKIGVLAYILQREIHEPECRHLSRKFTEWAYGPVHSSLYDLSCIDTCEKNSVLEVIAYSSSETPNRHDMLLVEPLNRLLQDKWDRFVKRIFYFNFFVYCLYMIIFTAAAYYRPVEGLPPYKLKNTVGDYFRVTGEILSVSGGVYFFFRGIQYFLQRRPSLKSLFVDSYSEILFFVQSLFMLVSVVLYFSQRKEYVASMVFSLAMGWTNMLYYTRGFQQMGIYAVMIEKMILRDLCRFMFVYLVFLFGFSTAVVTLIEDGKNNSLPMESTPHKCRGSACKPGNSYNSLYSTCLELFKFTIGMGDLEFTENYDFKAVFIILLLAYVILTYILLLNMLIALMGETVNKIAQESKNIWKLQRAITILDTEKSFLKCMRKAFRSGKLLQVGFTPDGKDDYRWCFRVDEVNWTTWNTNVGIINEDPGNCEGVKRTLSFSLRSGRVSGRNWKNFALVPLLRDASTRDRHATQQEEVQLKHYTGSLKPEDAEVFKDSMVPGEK

For C=C(C)[C@]12C[C@@H](C)[C@@]34O[C@](Cc5ccccc5)(O[C@@H]1[C@@H]3C=C(COC(=O)Cc1cc(I)c(O)c(OC)c1)C[C@]1(O)C(=O)C(C)=C[C@@H]41)O2 [Iodo-resiniferatoxin], the “antagonist of VR1 (potency in words)” value is listed as “nanomolar antagonist of VR1”.
